The source made the active and inactive calls. No cut-off for these calls is given here.
The compounds below were run on KB (assay: Cytotoxicity against human KB cells by resazurin assay).
Format: functional, cell-based
For `COc1ccc2c(c1)N(C)C(=O)[C@@]21C[C@@H]2N[C@H]1C[C@H]1C(C(C)=O)=COC[C@@H]21`, the IC50 was > 100 µM. With `C/C=C1/CN2CC[C@@]34c5cc(OC)ccc5N(C)[C@H]3[C@@H]2C[C@H]1[C@@H]4C(=O)OC` the IC50 was > 100 µM. With `CC(=O)C1=COC[C@H]2[C@@H]3C[C@@]4(C(=O)N(C)c5ccccc54)[C@H](C[C@@H]12)N3` [ALSTONAL] the IC50 was > 100 µM. With `CC1=C(C=O)[C@@H]2C[C@H]3c4c(c5ccccc5n4C)C[C@@H]([C@@H]2CO1)N3C` [ALSTONERINAL] the IC50 was > 100 µM. With `CC(=O)C1=COC[C@@H]2[C@H]1C[C@H]1C(=O)C[C@@H]2N1C` [ALSTONIAPHYLLINE A] the IC50 was > 100 µM. In the case of `C[C@@H]1OC[C@@H]2[C@@H](C[C@H]3C(=O)C[C@@H]2N3C)[C@@H]1CO` [ALSTONIAPHYLLINE B], the IC50 is reported as > 100 µM. In the case of `C[C@@H]1OC[C@@H]2[C@@H](C[C@H]3C4=Nc5ccccc5C4=C[C@@H]2[N+]3(C)[O-])[C@@H]1CO` (stereo not given in full) [ALSTONIAPHYLLINE C], the IC50 is reported as > 100 µM. In the case of `COc1ccc2c3c(n(C)c2c1)[C@@H]1C[C@H]2C(C=O)=C(C)OC[C@H]2[C@H](C3)N1C` [ALSTOPHYLLAL], the IC50 is reported as > 100 µM. With `CC(=O)C1=COC[C@@H]2[C@H]1C[C@H]1[C@H](O)C[C@@H]2N1C` [ANGUSTIMALINE] the IC50 was > 100 µM. Compound `COc1cccc2c1C(=O)c1c(O)c3c(c(O)c1C2=O)C[C@@](O)(C(=O)CO)C[C@@H]3O[C@H]1C[C@H](N)[C@H](O)[C@H](C)O1` [DOXORUBICIN] has an IC50 of 0.55 µM. `Cc1c2ccncc2c(C)c2c1[nH]c1ccccc12` [ELLIPTECINE] showed an IC50 of 4.87 µM. For `C[C@@H]1OC[C@@H]2[C@@H](C[C@H]3c4c(c5ccccc5n4C)C[C@@H]2N3C)[C@H]1CO` [MACROCARPINE B], the IC50 was > 100 µM. For `C[C@@H]1OC[C@@H]2[C@@H](C[C@H]3c4c(c5ccccc5n4C)C[C@@H]2N3C)[C@@H]1C=O` [Talcarpine], the IC50 was > 100 µM.

Each compound was assayed on Plasmodium falciparum (assay: Antimalarial activity against multidrug-resistant Plasmodium falciparum K1 by [3H]-hypoxanthine incorporation assay).
Format: functional, organism-based
For `COc1ccc2c(c1)N(C)C(=O)[C@@]21C[C@@H]2N[C@H]1C[C@H]1C(C(C)=O)=COC[C@@H]21`, the Activity was “Active”. `CC(=O)C1=COC[C@H]2[C@@H]3C[C@@]4(C(=O)N(C)c5ccccc54)[C@H](C[C@@H]12)N3` [ALSTONAL] gave an IC50 of 7.6 µM.
